How the values were obtained:
PI3K alfa = biological target: T1, PI3K alfa (Homo sapiens, UniProt P42336); assay: PI3 kinase assay (Kinase-Glo luminescence), PI3K alfa; type: biochemical; settings: Enzymatic Data; read-out: PI3K alfa IC50 [umol]
T1 construct: for the p110-a subunit (with a deletion of the first 20 amino acids); His tag (C); made in house; host or cells: baculovirus; Tn5 (Trichoplusia ni) or TiniPro insect cells
In short: (§1)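 Recombinant PI3K constructs (alfa 10 nM, delta 10 nM, gamma 150 nM) with 1 μM ATP and 10 μg/mL phosphatidylinositol in Tris pH 7.5, MgCl2, NaCl, CHAPS, DTT; 60 min (alfa, delta) or 120 min (gamma) at room temperature. ATP depletion read by Kinase-Glo luminescence; IC50 from 4-parameter logistic fit over 8 concentrations.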

PI3K beta = biological target: T2, PI3K beta (Homo sapiens, UniProt P42338); assay: PI3 kinase assay (Kinase-Glo luminescence), PI3K beta; type: biochemical; settings: Enzymatic Data; read-out: PI3K beta IC50 [umol]
T2 construct: for the full-length p110-b subunit are generated and fused by overlapping PCR; His tag (C); made in house; host or cells: baculovirus; Tn5 (Trichoplusia ni) or TiniPro insect cells
In short: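 PI3Kβ (25 nM, BV-949) with 10 μg/mL phosphatidylinositol in Tris pH 7.5/MgCl2/NaCl/CHAPS/DTT buffer; reaction started with 1 μM ATP, 60 min at room temperature. ATP depletion read by Kinase-Glo luminescence; 8-point dilutions, IC50 by four-parameter logistic fit.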

PI3K delta = biological target: T3, PI3K delta (Homo sapiens, UniProt O00329); assay: PI3 kinase assay (Kinase-Glo luminescence), PI3K delta; type: biochemical; settings: Enzymatic Data; read-out: PI3K delta IC50 [umol]
T3 construct: for the full-length p110-d subunit are generated and fused by overlapping PCR; His tag (C); made in house; host or cells: baculovirus; Tn5 (Trichoplusia ni) or TiniPro insect cells
In short: as §1

PI3K gamma = biological target: T4, PI3K gamma (Homo sapiens, UniProt P48736); assay: PI3 kinase assay (Kinase-Glo luminescence), PI3K gamma; type: biochemical; settings: Enzymatic Data; read-out: PI3K gamma IC50 [umol]
T4 construct: PI3Kγ BV-950 p110g(D144aa)-C-Term His Tag; His tag (C); made in house; host or cells: construct from the Roger Williams lab (MRC LMB) in pVL1393; baculovirus; Tn5 (Trichoplusia ni) or TiniPro insect cells
In short: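 Percent inhibition at eight concentrations (typically 10 to 0.003 […]) fitted to a four-parameter logistic model to give IC50. Reaction initiated with ATP; final ATP 1 μM and phosphatidylinositol 10 μg/mL; ATP consumption read by Kinase-Glo luminescence.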

T1 sequence (P42336 with tags, fused parts or gaps limits assumed): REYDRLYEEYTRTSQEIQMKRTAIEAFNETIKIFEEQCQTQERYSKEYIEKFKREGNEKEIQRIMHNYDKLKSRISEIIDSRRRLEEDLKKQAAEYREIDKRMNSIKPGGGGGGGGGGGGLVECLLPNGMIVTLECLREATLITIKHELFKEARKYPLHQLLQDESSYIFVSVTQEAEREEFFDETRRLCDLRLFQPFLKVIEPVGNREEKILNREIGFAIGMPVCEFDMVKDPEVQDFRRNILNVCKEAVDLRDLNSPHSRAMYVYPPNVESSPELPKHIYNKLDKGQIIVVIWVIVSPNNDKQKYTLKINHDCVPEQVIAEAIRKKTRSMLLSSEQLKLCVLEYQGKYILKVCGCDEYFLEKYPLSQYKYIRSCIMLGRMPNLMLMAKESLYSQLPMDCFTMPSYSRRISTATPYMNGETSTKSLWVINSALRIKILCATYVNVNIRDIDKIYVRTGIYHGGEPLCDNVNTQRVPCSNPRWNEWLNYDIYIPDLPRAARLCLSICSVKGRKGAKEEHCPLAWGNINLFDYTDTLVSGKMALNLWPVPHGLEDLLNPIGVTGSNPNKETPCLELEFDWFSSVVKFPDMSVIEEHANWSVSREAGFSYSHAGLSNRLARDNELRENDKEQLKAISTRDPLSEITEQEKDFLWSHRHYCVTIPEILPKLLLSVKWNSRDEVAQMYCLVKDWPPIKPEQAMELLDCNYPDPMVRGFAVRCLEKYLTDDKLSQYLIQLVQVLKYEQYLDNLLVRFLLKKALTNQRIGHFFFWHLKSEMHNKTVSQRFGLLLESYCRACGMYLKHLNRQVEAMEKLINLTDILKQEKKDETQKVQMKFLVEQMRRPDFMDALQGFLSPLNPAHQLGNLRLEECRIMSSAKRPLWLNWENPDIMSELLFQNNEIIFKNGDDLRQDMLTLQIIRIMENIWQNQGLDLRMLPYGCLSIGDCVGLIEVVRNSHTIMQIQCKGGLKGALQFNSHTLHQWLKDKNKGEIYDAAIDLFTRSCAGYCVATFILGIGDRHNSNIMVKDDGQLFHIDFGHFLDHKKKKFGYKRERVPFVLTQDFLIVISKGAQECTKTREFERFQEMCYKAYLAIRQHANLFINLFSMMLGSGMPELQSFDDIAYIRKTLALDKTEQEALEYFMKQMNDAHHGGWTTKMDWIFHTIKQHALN
T3 sequence (O00329 with tags, fused parts or gaps limits assumed): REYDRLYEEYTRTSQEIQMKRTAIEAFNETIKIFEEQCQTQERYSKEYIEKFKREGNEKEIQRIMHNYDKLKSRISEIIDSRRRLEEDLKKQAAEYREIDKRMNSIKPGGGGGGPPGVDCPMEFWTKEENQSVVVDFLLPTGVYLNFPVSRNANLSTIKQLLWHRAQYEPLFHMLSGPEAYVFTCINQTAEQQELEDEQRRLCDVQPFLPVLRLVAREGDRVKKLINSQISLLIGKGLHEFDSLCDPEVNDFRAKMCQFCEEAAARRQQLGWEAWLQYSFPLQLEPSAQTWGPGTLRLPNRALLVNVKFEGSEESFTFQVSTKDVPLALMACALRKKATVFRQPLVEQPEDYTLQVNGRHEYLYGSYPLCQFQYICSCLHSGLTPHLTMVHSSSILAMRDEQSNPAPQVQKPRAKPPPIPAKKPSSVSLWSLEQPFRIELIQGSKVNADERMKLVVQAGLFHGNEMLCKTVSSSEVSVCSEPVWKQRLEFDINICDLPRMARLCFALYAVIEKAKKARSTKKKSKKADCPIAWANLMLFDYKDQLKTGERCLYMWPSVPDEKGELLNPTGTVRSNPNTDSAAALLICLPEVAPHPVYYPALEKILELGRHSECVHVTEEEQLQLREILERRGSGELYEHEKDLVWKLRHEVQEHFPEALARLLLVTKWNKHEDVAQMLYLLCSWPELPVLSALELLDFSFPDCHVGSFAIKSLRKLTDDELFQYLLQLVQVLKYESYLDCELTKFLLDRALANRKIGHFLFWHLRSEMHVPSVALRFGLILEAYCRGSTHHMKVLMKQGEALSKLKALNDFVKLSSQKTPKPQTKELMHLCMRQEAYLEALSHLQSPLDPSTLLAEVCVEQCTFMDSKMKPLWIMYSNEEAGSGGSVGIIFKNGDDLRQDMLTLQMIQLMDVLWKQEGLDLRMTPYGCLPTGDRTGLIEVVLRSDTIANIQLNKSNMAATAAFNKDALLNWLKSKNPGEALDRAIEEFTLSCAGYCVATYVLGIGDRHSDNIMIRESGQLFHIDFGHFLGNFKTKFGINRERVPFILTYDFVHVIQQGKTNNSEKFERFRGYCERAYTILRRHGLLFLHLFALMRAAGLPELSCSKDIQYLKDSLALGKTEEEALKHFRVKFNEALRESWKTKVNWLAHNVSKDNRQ
T4 sequence (P48736 144-1102 limits assumed): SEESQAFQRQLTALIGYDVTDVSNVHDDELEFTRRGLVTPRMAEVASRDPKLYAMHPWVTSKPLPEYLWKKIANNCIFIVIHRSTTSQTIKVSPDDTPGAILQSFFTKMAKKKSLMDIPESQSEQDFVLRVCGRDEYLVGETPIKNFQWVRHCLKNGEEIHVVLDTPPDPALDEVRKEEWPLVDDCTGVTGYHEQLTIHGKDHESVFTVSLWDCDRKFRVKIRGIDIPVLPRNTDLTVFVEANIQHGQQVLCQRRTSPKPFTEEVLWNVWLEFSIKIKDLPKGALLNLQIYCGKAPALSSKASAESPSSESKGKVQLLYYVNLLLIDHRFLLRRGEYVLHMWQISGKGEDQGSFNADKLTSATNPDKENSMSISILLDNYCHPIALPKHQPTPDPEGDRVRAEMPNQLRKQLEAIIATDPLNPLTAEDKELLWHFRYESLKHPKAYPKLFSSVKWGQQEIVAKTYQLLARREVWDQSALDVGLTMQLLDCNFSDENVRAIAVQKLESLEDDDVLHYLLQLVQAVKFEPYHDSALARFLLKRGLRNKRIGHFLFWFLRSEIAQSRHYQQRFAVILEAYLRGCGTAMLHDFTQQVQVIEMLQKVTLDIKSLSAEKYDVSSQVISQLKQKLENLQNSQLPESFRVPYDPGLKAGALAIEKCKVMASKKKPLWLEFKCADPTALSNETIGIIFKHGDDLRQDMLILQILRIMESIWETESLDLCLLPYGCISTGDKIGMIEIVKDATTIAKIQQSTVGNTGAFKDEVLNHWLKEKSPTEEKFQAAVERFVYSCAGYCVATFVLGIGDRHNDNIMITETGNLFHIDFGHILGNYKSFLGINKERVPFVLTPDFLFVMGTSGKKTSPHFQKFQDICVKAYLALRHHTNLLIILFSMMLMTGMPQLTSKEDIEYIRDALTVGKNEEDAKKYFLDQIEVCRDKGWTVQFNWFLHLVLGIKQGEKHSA
T2 sequence (P42338 with tags, fused parts or gaps limits assumed): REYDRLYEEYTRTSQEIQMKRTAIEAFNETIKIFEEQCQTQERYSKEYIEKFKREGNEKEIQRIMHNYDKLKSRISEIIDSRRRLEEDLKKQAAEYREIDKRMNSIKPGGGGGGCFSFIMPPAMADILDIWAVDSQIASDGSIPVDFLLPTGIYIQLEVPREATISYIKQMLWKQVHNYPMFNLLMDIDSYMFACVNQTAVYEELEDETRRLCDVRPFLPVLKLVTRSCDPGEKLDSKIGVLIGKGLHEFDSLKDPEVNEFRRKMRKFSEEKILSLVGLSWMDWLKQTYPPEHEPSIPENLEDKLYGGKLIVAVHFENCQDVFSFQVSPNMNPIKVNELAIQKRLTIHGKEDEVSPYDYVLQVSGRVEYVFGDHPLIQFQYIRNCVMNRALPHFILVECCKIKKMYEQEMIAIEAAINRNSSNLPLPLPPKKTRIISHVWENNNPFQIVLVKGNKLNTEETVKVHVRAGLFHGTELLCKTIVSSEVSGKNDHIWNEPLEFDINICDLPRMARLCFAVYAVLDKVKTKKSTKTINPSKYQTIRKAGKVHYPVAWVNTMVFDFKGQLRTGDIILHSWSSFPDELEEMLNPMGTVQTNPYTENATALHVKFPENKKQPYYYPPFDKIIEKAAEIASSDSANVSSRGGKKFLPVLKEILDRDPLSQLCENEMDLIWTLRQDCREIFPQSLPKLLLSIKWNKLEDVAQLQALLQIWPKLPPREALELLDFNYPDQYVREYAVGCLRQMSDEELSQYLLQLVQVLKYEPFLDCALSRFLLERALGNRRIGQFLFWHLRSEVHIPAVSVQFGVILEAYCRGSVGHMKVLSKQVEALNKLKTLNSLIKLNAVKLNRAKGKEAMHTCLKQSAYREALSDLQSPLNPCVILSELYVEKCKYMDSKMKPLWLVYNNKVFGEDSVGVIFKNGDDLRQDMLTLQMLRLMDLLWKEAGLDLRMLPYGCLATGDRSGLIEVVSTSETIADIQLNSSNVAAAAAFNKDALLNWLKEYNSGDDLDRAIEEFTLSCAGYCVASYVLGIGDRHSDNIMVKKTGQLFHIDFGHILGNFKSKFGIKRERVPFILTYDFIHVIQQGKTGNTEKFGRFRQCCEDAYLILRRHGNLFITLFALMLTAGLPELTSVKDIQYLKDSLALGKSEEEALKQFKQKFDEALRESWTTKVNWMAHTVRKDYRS

A melting point of 131 to 133 °C was found for COc1ccc(-c2cnn3ccc(-c4ccc(OCCCNC(=O)OC(C)(C)C)c(OC)c4)nc23)cc1OC [Example 25, (3-{4-[3-(3,4-Dimethoxy-phenyl)-pyrazolo[1,5-a]pyrimidin-5-yl]-2-methoxy-phenoxy}-propyl)-carbamic acid tert-butyl ester] in this work.

An IC50 (PI3K alfa) of 61 nM, an IC50 (PI3K beta) of 496 nM and an IC50 (PI3K delta) of 227 nM were found for Nc1ncc(-c2cnc3ccc(-c4ccc(OCC5(N)COC5)cc4)nn23)cc1C(F)(F)F [Example 147, 5-{6-[4-(3-Amino-oxetan-3-ylmethoxy)-phenyl]-imidazo[1,2-b]pyridazin-3-yl}-3-trifluoromethyl-pyridin-2-yl amine] in this work. For the same compound, the IC50 (PI3K gamma) was 1310 nM and the melting point was 198 to 200 °C.

An IC50 (PI3K alfa) of 96 nM, an IC50 (PI3K beta) of 3290 nM and an IC50 (PI3K delta) of 369 nM were found for COC(=O)NC1(COc2ccc(-c3ccc4ncc(-c5cnc(N)c(C(F)(F)F)c5)n4n3)cc2)COC1 [Example 148, (3-{4-[3-(6-Amino-5-trifluoromethyl-pyridin-3-yl)-imidazo[1,2-b]pyridazin-6-yl]-phenoxymethyl}-oxetan-3-yl)-carbamic acid methyl ester] in this work. The IC50 (PI3K gamma) was 810 nM and the melting point was 220 to 222 °C.

An IC50 (PI3K alfa) of 379 nM, an IC50 (PI3K beta) greater than 9100 nM and an IC50 (PI3K delta) greater than 9100 nM were found for CC(C)(C)OC(=O)N1CCC(Oc2ccc(-c3ccc4ncc(-c5cnc(N)c(C(F)(F)F)c5)n4n3)cc2)CC1 [Example 162, 4-{4-[3-(6-Amino-5-trifluoro-methyl-pyridin-3-yl)-imidazo [1,2-b]pyridazin-6-yl]-phenoxy}-piperidine-1-carboxylic acid tert-butyl ester] in this work. The IC50 (PI3K gamma) was greater than 9100 nM.

An IC50 (PI3K alfa) of 69 nM, an IC50 (PI3K beta) of 908 nM and an IC50 (PI3K delta) of 86 nM were found for Nc1ncc(-c2cnc3ccc(-c4ccc(OCCCN5CCNC5=O)cc4)nn23)cc1C(F)(F)F [Example 163, 1-(3-{4-[3-(6-Amino-5-trifluoro-methyl-pyridin-3-yl)-imidazo [1,2-b]pyridazin-6-yl]-phenoxy}-propyl)-imidazolidin-2-one] in this work. It also gave an IC50 (PI3K gamma) of 1890 nM.

An IC50 (PI3K alfa) of 6 nM, an IC50 (PI3K beta) of 154 nM and an IC50 (PI3K delta) of 26 nM were found for COc1cc(-c2ccc3ncc(-c4cnc(N)c(C(F)(F)F)c4)n3n2)ccc1OCCCN1CCNC1=O [Example 164, 1-(3-{4-[3-(6-Amino-5-trifluoro-methyl-pyridin-3-yl)-imidazo [1,2-b]pyridazin-6-yl]-2-methoxy-phenoxy}-propyl)-imidazolidin-2-one] in this work. The IC50 (PI3K gamma) was 453 nM.

An IC50 (PI3K alfa) of 131 nM, an IC50 (PI3K beta) of 355 nM and an IC50 (PI3K delta) of 207 nM were found for Nc1ncc(-c2cnc3ccc(-c4ccc(OC5CCNCC5)cc4)nn23)cc1C(F)(F)F [Example 165, 5-{6-[4-(Piperidin-4-yloxy)-phenyl]-imidazo [1,2-b]pyridazin-3-yl}-3-trifluoro-methyl-pyridin-2-ylamine] in this work. For the same compound, the IC50 (PI3K gamma) was 371 nM.

An IC50 (PI3K alfa) of 50 nM, an IC50 (PI3K beta) of 204 nM and an IC50 (PI3K delta) of 41 nM were found for COc1cc(-c2ccc3ncc(-c4cnc(N)c(C(F)(F)F)c4)n3n2)ccc1OC1CCNCC1 [Example 166, 5-{6-(3-Methoxy-4-(piperidin-4-yloxy)-phenyl]-imidazo [1,2-b]pyridazin-3-yl}-3-trifluoro-methyl-pyridin-2-ylamine] in this work. The IC50 (PI3K gamma) was 556 nM.

An IC50 (PI3K alfa) of 35 nM, an IC50 (PI3K beta) of 1480 nM and an IC50 (PI3K delta) of 231 nM were found for CC(C)C(=O)NCC1(COc2ccc(-c3ccc4ncc(-c5cnc(N)c(C(F)(F)F)c5)n4n3)cc2)COC1 [Example 167] in this work. It also gave an IC50 (PI3K gamma) of 2040 nM and a melting point of 205 to 207 °C.

An IC50 (PI3K alfa) of 45 nM, an IC50 (PI3K beta) of 82 nM and an IC50 (PI3K delta) of 53 nM were found for NCC1(COc2ccc(-c3ccc4ncc(-c5cnc(N)c(C(F)(F)F)c5)n4n3)cc2)COC1 [Example 169, 5-{6-[4-(3-Aminomethyl-oxetan-3-ylmethoxy)-phenyl]-imidazo[1,2-b]pyridazin-3-yl}-3-trifluoromethyl-pyridin-2-ylamine] in this work. The IC50 (PI3K gamma) was 324 nM.

An IC50 (PI3K alfa) of 49 nM, an IC50 (PI3K beta) of 185 nM and an IC50 (PI3K delta) of 61 nM were found for Nc1ncc(-c2ccc3ncc(-c4ccc(OCCCN5CCOCC5)cc4)n3n2)cc1C(F)(F)F [Example 171, 5-{3-[4-(3-Morpholin-4-yl-propoxy)-phenyl]-imidazo [1,2-b]pyridazin-6-yl}-3-trifluoro-methyl-pyridin-2-ylamine] in this work. The IC50 (PI3K gamma) was 480 nM.

An IC50 (PI3K alfa) of 106 nM, an IC50 (PI3K beta) of 2060 nM and an IC50 (PI3K delta) of 224 nM were found for Nc1ncc(-c2ccc3ncc(-c4ccc(OCCCc5ccncc5)cc4)n3n2)cc1C(F)(F)F [Example 174, 5-{3-[4-(3-Pyridin-4-yl-propoxy)-phenyl]-imidazo [1,2-b]pyridazin-6-yl}-3-trifluoro-methyl-pyridin-2-ylamine] in this work. The IC50 (PI3K gamma) was 2070 nM.

An IC50 (PI3K alfa) of 119 nM, an IC50 (PI3K beta) of 7100 nM and an IC50 (PI3K delta) of 421 nM were found for CC(C)(C)OC(=O)NCCCOc1ccc(-c2ccc3ncc(-c4cnc(N)c(C(F)(F)F)c4)n3n2)cn1 [Example 175, (3-{5-[3-(G-Amino-5-trifluoro-methyl-pyridin-3-yl)-imidazo [1,2-b]pyridazin-6-yl]-pyridin-2-yloxy}-propyl)-carbamic acid tert-butyl ester] in this work. The IC50 (PI3K gamma) was greater than 9100 nM.

An IC50 (PI3K alfa) of 82 nM, an IC50 (PI3K beta) of 81 nM and an IC50 (PI3K delta) of 41 nM were found for NCCCOc1ccc(-c2ccc3ncc(-c4cnc(N)c(C(F)(F)F)c4)n3n2)cn1 [Example 176, 5-{6-[6-(3-Amino-propoxy)-pyridin-3-yl]-imidazo-[1,2b]pyridazin-3-yl}-3-trifluoro-methyl-pyridin-2-ylamine] in this work. It also gave an IC50 (PI3K gamma) of 2440 nM.

An IC50 (PI3K alfa) of 11 nM, an IC50 (PI3K beta) of 331 nM and an IC50 (PI3K delta) of 92 nM were found for Nc1ncc(-c2cnc3ccc(-c4ccc(OCCCNC(=O)C5CC5)nc4)nn23)cc1C(F)(F)F [Example 177, Cyclo-propane-carboxylic acid (3-{5-[3-(6-amino-5-trifluoro-methyl-pyridin-3-yl)-imidazo [1,2-b]pyridazin-6-yl]-pyridin-2-yloxy}-propyl)-amide] in this work. For the same compound, the IC50 (PI3K gamma) was greater than 9100 nM.

An IC50 (PI3K alfa) of 793 nM, an IC50 (PI3K beta) of 6190 nM and an IC50 (PI3K delta) of 495 nM were found for c1cc2cc(-c3cnc4ccc(-c5ccc6c(c5)OCO6)nn34)cnc2[nH]1 [Example 178, 6-Benzo [1,3] dioxol-5-yl-3-(1H-pyrrolo [2,3-b]pyridin-5-yl)-imidazo [1,2-b] pyridazine] in this work. It also gave an IC50 (PI3K gamma) greater than 9100 nM.

An IC50 (PI3K alfa) of 3900 nM, an IC50 (PI3K beta) greater than 9100 nM and an IC50 (PI3K delta) of 448 nM were found for COc1ccccc1-c1ccn2ncc(-c3ccc(C(N)=O)cc3)c2n1 [Example 179, 4-[5-(2-Methoxy-phenyl)-pyrazolo[1,5-a]pyrimidin-3-yl]-benzamide] in this work. For the same compound, the IC50 (PI3K gamma) was 2920 nM.

A melting point of 249 to 252 °C was found for Nc1ncc(-c2ccc3ncc(-c4ccc(CN5CCC(C(=O)N6CCCCCC6)CC5)cc4)n3n2)cc1C(F)(F)F [Example 182, (1-{4-[6-(6-Amino-5-trifluoromethyl-pyridin-3-yl)-imidazo[1,2-b]pyridazin-3-yl]-benzyl}-piperidin-4-yl)-azepan-1-yl-methanone] in this work.

A melting point of 263 to 266 °C was found for Nc1ncc(-c2ccc3ncc(-c4ccc(CN5CCC(C(=O)N6CCCCC6)CC5)cc4)n3n2)cc1C(F)(F)F [Example 183, (1-{4-[6-(6-Amino-5-trifluoromethyl-pyridin-3-yl)-imidazo[1,2-b]pyridazin-3-yl]-benzyl}-piperidin-4-yl)-piperidin-1-yl-methanone] in this work.

Reference: US20100311729A1, “Substituted imidazopyridazines and pyrrolopyrimidines as lipid kinase inhibitors” (priority 2007, published 2010)
